How the values were obtained:
[1] = tested on: LNCaP cells; assay: MTS cell proliferation assay, androgen-dependent LNCaP cells; format: cell-based, human; conditions: 50 μM
Description: Cell proliferation assays were performed using the 3-(4,5-dimethylhiazol-2-yl)-5-(3-carboxymethoxyphenyl)-2-(4-sulfophenyl)-2H-tetrazolium Assay (MTS) according to the manufacturer's protocol, with minor modifications (Promega). LNCaP cells were plated in 96-well plates at a density of 3000 cells per well and incubated in RPMI medium containing 5% CSS for one day. On the following day, the DDC inhibitors, carbidopa (25 and 50 μM) and NSD-1015 (10 μM)±0.1 nM R1881 were added to each well in charcoal-stripped serum (CSS; Hyclone, VWR) RPMI media. The cells were harvested at days 0, 2, 4, 6 and 8, with a medium change every 3 days. Each time point was measured with 6 replicates.
Student's t-test (two-sample equal variance) was used to evaluate statistically significant differences. All calculated p-values were two-sided and those less than 0.05 were considered statistically significant.

[2] = tested on: DU 145; conditions: cited from earlier work
[3] = tested on: neuroendocrine cancer cell lines; conditions: including a carcinoid cancer and a small cell lung cancer cell line; cited from earlier work
[4] = tested on: LNCaP-Vector control xenografts; assay: LNCaP-Vector control tumour xenografts with carbidopa treatment; format: in vivo, mice; conditions: 25 mg/kg intraperitoneally daily, Dox, endogenous DDC only
Description: (§1) LNCaP-DDC and LNCaP-Vector control cells were inoculated subcutaneously (s.c.), after resuspension in 0.1 mL of Matrigel (Becton Dickinson Labware), into two flank regions (2.5×10^6 cells/site) of 6 to 8 week old male athymic nude mice (Harlan Sprague Dawley, Inc.) via a 27-gauge needle under halothane anesthesia. Tumour volume and serum PSA measurements (blood collected from the tail vein) were performed once per week after tumours became palpable. PSA levels were measured by ELISA (ClinPro International) and tumour size was calculated by the formula; length×width×depth×0.5236. Once serum PSA values reached 75-100 ng/mL, mice in both the LNCaP-DDC and LNCaP-Vector control groups were given Dox-treated water (200 μg/mL) and treated with or without carbidopa. Carbidopa was purchased from Sigma and dissolved in DMSO. The solution was diluted in PBS to a final concentration of 10% DMSO and sterilized through a 0.2 μm filter. Carbidopa solution was injected intraperitoneally into half of the mice (25 mg per kg of body weight) for the +carbidopa groups, while the remaining mice received vehicle injections consisting of 10% DMSO in PBS (−carbidopa groups). Injections were carried out daily for the duration of the experiment. […] PSA velocity and tumour growth rate differences were determined by one-way ANOVA and Tukey's multiple comparison test. […]

[5] = tested on: LNCaP-DDC xenografts; assay: LNCaP-DDC (DDC overexpressing) tumour xenografts with carbidopa treatment; format: in vivo, mice; conditions: 25 mg/kg intraperitoneally daily, Dox
Description: as §1

C[C@@](Cc1ccc(O)c(O)c1)(NN)C(=O)O [carbidopa, α-Methyl-dopahydrazine]
reduction of number of cells relative to control non-treated cells ([1]; day 8, absence of androgen): 1.42 fold
reduction of number of cells relative to control non-treated cells ([1]; day 8, presence of androgen (0.1 nM R1881)): 1.69 fold
effect on proliferation [2]: did not affect proliferation
lethality to cancer cell lines [3]: lethal to several but not all tested neuroendocrine cancer cell lines
PSA velocity (rate of PSA production) ([4]; over 35 days): 7.2±1
tumour growth rate ([4]; over 49 days): 9.8±2
PSA velocity (rate of PSA production) ([5]; over 35 days, PSA normalized to pre-treatment 100%): 14.7±0.6
tumour growth rate ([5]; over 49 days, volume normalized to pre-treatment 100%): 22.5±3
